Data from ChEMBL document CHEMBL3734723, “Synthesis and anticancer activity of 6-heteroarylcoumarins” (2015).

Columns and labels:
Format in all cases: functional
[1] = Cytotoxicity against human UO31 cells assessed as cell growth at 10 uM incubated for 48 hrs by sulforhodamine B assay; conditions: UO-31, 48 h, read-out: Activity
[2] = Cytotoxicity against human SNB19 cells assessed as cell growth at 10 uM incubated for 48 hrs by sulforhodamine B assay; conditions: SNB-19, 48 h, read-out: Activity
[3] = Cytotoxicity against human OVCAR4 cells assessed as cell growth at 10 uM incubated for 48 hrs by sulforhodamine B assay; conditions: OVCAR-4, 48 h, read-out: Activity
EKVX = experiment: Cytotoxicity against human EKVX cells assessed as cell growth at 10 uM incubated for 48 hrs by sulforhodamine B assay; conditions: read-out: Activity
SN12C = experiment: Growth inhibition of human SN12C cells incubated for 48 hrs by sulforhodamine B assay; conditions: for CC50: read-out: LC50 (the source's name)
CCRF-CEM [4] = experiment: Growth inhibition of human CCRF-CEM cells incubated for 48 hrs by sulforhodamine B assay; conditions: for CC50: read-out: LC50 (the source's name)
[5] = Growth inhibition of human prostate cancer cells after 48 hrs by sulforhodamine B assay; conditions: Cancer cell lines; for CC50: read-out: LC50 (the source's name)
[6] = Cytotoxicity against human HCT116 cells assessed as cell growth at 10 uM incubated for 48 hrs by sulforhodamine B assay; conditions: HCT-116, 48 h, read-out: Activity
ACHN = experiment: Cytotoxicity against human ACHN cells assessed as cell growth at 10 uM incubated for 48 hrs by sulforhodamine B assay; conditions: read-out: Activity
[7] = Cytotoxicity against human HOP62 cells assessed as cell growth at 10 uM incubated for 48 hrs by sulforhodamine B assay; conditions: HOP-62, 48 h, read-out: Activity
NCI-H226 = experiment: Cytotoxicity against human NCI-H226 cells assessed as cell growth at 10 uM incubated for 48 hrs by sulforhodamine B assay; conditions: NCI-H226, 48 h, read-out: Activity
[8] = Growth inhibition of human HCT116 cells incubated for 48 hrs by sulforhodamine B assay; conditions: HCT-116, 48 h; for CC50: read-out: LC50 (the source's name)
[9] = Growth inhibition of human HOP92 cells incubated for 48 hrs by sulforhodamine B assay; conditions: HOP-92, 48 h; for CC50: read-out: LC50 (the source's name)
[10] = Cytotoxicity against human RPMI8226 cells assessed as cell growth at 10 uM incubated for 48 hrs by sulforhodamine B assay; conditions: RPMI-8226, 48 h, read-out: Activity
NCI-H23 = experiment: Growth inhibition of human NCI-H23 cells incubated for 48 hrs by sulforhodamine B assay; conditions: NCI-H23, 48 h; for CC50: read-out: LC50 (the source's name)
[11] = Growth inhibition of human OVCAR8 cells incubated for 48 hrs by sulforhodamine B assay; conditions: OVCAR-8, 48 h; for CC50: read-out: LC50 (the source's name)
[12] = Cytotoxicity against human IGROV1 cells assessed as cell growth at 10 uM incubated for 48 hrs by sulforhodamine B assay; conditions: IGROV-1, 48 h, read-out: Activity
T47D [13] = experiment: Cytotoxicity against human T47D cells assessed as cell growth at 10 uM incubated for 48 hrs by sulforhodamine B assay; conditions: read-out: Activity
[14] = Growth inhibition of human NCI-ADR-RES cells incubated for 48 hrs by sulforhodamine B assay; conditions: for CC50: read-out: LC50 (the source's name)
NCI-H522 = experiment: Growth inhibition of human NCI-H522 cells incubated for 48 hrs by sulforhodamine B assay; conditions: NCI-H522, 48 h; for CC50: read-out: LC50 (the source's name)
T47D [15] = experiment: Growth inhibition of human T47D cells incubated for 48 hrs by sulforhodamine B assay; conditions: for CC50: read-out: LC50 (the source's name)
[16] = Growth inhibition of human SKOV3 cells incubated for 48 hrs by sulforhodamine B assay; conditions: SK-OV-3, 48 h; for CC50: read-out: LC50 (the source's name)
[17] = Cytotoxicity against human UACC62 cells assessed as cell growth at 10 uM incubated for 48 hrs by sulforhodamine B assay; conditions: UACC-62, 48 h, read-out: Activity
[18] = Cytotoxicity against human […] cells assessed as cell growth at 10 uM incubated for 48 hrs by sulforhodamine B assay; conditions: read-out: Activity
[19] = Growth inhibition of human SNB19 cells incubated for 48 hrs by sulforhodamine B assay; conditions: SNB-19, 48 h; for CC50: read-out: LC50 (the source's name)
NCI-H460 = experiment: Cytotoxicity against human NCI-H460 cells assessed as cell growth at 10 uM incubated for 48 hrs by sulforhodamine B assay; conditions: NCI-H460, 48 h, read-out: Activity
MDA-MB-468 = experiment: Growth inhibition of human MDA-MB-468 cells incubated for 48 hrs by sulforhodamine B assay; conditions: MDA-MB-468, 48 h; for CC50: read-out: LC50 (the source's name)
CCRF-CEM [20] = experiment: Cytotoxicity against human CCRF-CEM cells assessed as cell growth at 10 uM incubated for 48 hrs by sulforhodamine B assay; conditions: read-out: Activity
[21] = Cytotoxicity against human RXF393 cells assessed as cell growth at 10 uM incubated for 48 hrs by sulforhodamine B assay; conditions: RXF 393, 48 h, read-out: Activity
KM12 = experiment: Cytotoxicity against human KM12 cells assessed as cell growth at 10 uM incubated for 48 hrs by sulforhodamine B assay; conditions: KM12, 48 h, read-out: Activity
HT-29 = experiment: Growth inhibition of human HT-29 cells incubated for 48 hrs by sulforhodamine B assay; conditions: HT-29, 48 h; for CC50: read-out: LC50 (the source's name)
[22] = Growth inhibition of human PC3 cells incubated for 48 hrs by sulforhodamine B assay; conditions: PC-3, 48 h; for CC50: read-out: LC50 (the source's name)
[23] = Cytotoxicity against human HCT15 cells assessed as cell growth at 10 uM incubated for 48 hrs by sulforhodamine B assay; conditions: HCT-15, 48 h, read-out: Activity
[24] = Growth inhibition of human SNB75 cells incubated for 48 hrs by sulforhodamine B assay; conditions: SNB-75, 48 h; for CC50: read-out: LC50 (the source's name)
SK-MEL-28 = experiment: Cytotoxicity against human SK-MEL-28 cells assessed as cell growth at 10 uM incubated for 48 hrs by sulforhodamine B assay; conditions: SK-MEL-28, 48 h, read-out: Activity
[25] = Growth inhibition of human MOLT4 cells incubated for 48 hrs by sulforhodamine B assay; conditions: MOLT-4, 48 h

Cc1cc(=O)oc2c(C)c(O)c(-c3ccnc(N)n3)cc12 showed a growth at 10 µM [1] of 23%, a growth at 10 µM [2] of 64.1% and a growth at 10 µM [3] of 68.6%. For the same compound, the growth at 10 µM (EKVX) was 46.7%, the GI50 (SN12C) was 29.2 µM and the TGI (SN12C) was over 100 µM. The CC50 (SN12C) was over 100 µM, the GI50 (CCRF-CEM [4]) was 8.7 µM and the TGI (CCRF-CEM [4]) was over 100 µM. For the same compound, the CC50 (CCRF-CEM [4]) was over 100 µM, the GI50 [5] was over 100 µM and the TGI [5] was over 100 µM. For the same compound, the CC50 [5] was over 100 µM, the growth at 10 µM [6] was 15.8% and the growth at 10 µM (ACHN) was 26.9%. The growth at 10 µM [7] was 67.8%, the growth at 10 µM (NCI-H226) was 52.3% and the GI50 [8] was 3.05 µM. The TGI [8] was over 100 µM, the CC50 [8] was over 100 µM and the GI50 [9] was 19.4 µM. The TGI [9] was 93.9 µM, the CC50 [9] was over 100 µM and the growth at 10 µM [10] was 30.5%. For the same compound, the GI50 (NCI-H23) was 46 µM, the TGI (NCI-H23) was over 100 µM and the CC50 (NCI-H23) was over 100 µM. For the same compound, the GI50 [11] was 6.95 µM, the TGI [11] was over 100 µM and the CC50 [11] was over 100 µM. It also gave a growth at 10 µM [12] of 60.9%, a growth at 10 µM (T47D [13]) of 53.7% and a GI50 [14] of 66.1 µM. It also gave a TGI [14] of over 100 µM, a CC50 [14] of over 100 µM and a GI50 (NCI-H522) of 20.7 µM. For the same compound, the TGI (NCI-H522) was over 100 µM, the CC50 (NCI-H522) was over 100 µM and the GI50 (T47D [15]) was 5 µM. For the same compound, the TGI (T47D [15]) was over 100 µM, the CC50 (T47D [15]) was over 100 µM and the GI50 [16] was 28.3 µM. For the same compound, the TGI [16] was over 100 µM, the CC50 [16] was over 100 µM and the growth at 10 µM [17] was 51.5%. It also gave a growth at 10 µM [18] of 40.4%, a GI50 [19] of 35.8 µM and a TGI [19] of over 100 µM. The CC50 [19] was over 100 µM, the growth at 10 µM (NCI-H460) was 19.8% and the GI50 (MDA-MB-468) was 4.53 µM. For the same compound, the TGI (MDA-MB-468) was over 100 µM, the CC50 (MDA-MB-468) was over 100 µM and the growth at 10 µM (CCRF-CEM [20]) was -36.8%. For the same compound, the growth at 10 µM [21] was 55.7%, the growth at 10 µM (KM12) was 66.1% and the GI50 (HT-29) was 6.72 µM. It also gave a TGI (HT-29) of over 100 µM, a CC50 (HT-29) of over 100 µM and a GI50 [22] of over 100 µM. It also gave a TGI [22] of over 100 µM, a CC50 [22] of over 100 µM and a growth at 10 µM [23] of 50.4%. It also gave a GI50 [24] of 5.08 µM, a TGI [24] of 92.9 µM and a CC50 [24] of over 100 µM.

For Cc1cc(=O)oc2c(C)c(O)c(-c3cc4ccc(F)cc4[nH]3)cc12, the growth at 10 µM [1] was 21.6%, the growth at 10 µM [2] was 31.6% and the growth at 10 µM [3] was 33.7%. For the same compound, the growth at 10 µM (EKVX) was 53.3%, the GI50 (SN12C) was 3.32 µM and the TGI (SN12C) was 13 µM. For the same compound, the CC50 (SN12C) was 48 µM, the GI50 (CCRF-CEM [4]) was 4.42 µM and the TGI (CCRF-CEM [4]) was 47.7 µM. For the same compound, the CC50 (CCRF-CEM [4]) was over 100 µM, the GI50 [5] was 3.09 µM and the TGI [5] was 14.2 µM. For the same compound, the CC50 [5] was over 100 µM, the growth at 10 µM [6] was 22.9% and the growth at 10 µM (ACHN) was 27.6%. It also gave a growth at 10 µM (SK-MEL-28) of 55.3%, a GI50 [8] of 2.62 µM and a TGI [8] of 9.87 µM. It also gave a CC50 [8] of 31.5 µM, a GI50 [9] of 0.95 µM and a TGI [9] of 4.17 µM. The CC50 [9] was 29.9 µM, the growth at 10 µM [10] was 8.76% and the GI50 (NCI-H23) was 2.07 µM. For the same compound, the TGI (NCI-H23) was 8.99 µM, the CC50 (NCI-H23) was 75.3 µM and the GI50 [11] was 3.88 µM. For the same compound, the TGI [11] was 24 µM, the CC50 [11] was over 100 µM and the growth at 10 µM [12] was 33.2%. It also gave a growth at 10 µM (T47D [13]) of 27.2%, a GI50 [14] of 2.82 µM and a TGI [14] of 12.7 µM. The CC50 [14] was over 100 µM, the GI50 (NCI-H522) was 2.78 µM and the TGI (NCI-H522) was 9.09 µM. It also gave a CC50 (NCI-H522) of 48.9 µM, a GI50 (T47D [15]) of 2.39 µM and a TGI (T47D [15]) of 22.1 µM. The CC50 (T47D [15]) was over 100 µM, the GI50 [16] was 2.93 µM and the TGI [16] was 13.1 µM. For the same compound, the CC50 [16] was 64.9 µM, the growth at 10 µM [17] was 26% and the growth at 10 µM [18] was 41.2%. It also gave a CC50 [19] of over 100 µM, a growth at 10 µM (NCI-H460) of 28.4% and a GI50 [25] of 3.27 µM. For the same compound, the TGI [25] was 15 µM, the CC50 ([25]; read-out: LC50 (the source's name)) was over 100 µM and the GI50 (MDA-MB-468) was 2.31 µM. For the same compound, the TGI (MDA-MB-468) was 8.66 µM, the CC50 (MDA-MB-468) was 80.4 µM and the growth at 10 µM (CCRF-CEM [20]) was 43.1%. It also gave a growth at 10 µM [21] of 64.4%, a growth at 10 µM (KM12) of 33.2% and a GI50 (HT-29) of 10.2 µM. For the same compound, the TGI (HT-29) was 23 µM, the CC50 (HT-29) was 52 µM and the GI50 [22] was 2.64 µM. For the same compound, the TGI [22] was 10 µM, the CC50 [22] was over 100 µM and the growth at 10 µM [23] was 31.9%. The GI50 [24] was 5.7 µM, the TGI [24] was 24 µM and the CC50 [24] was 78.3 µM.
